Entries after “also recorded” stand apart in the source; their conditions may differ.
Experiments:
[1] = system: MDA-MB-231 cells; experiment: in vitro anti-proliferation assay (MTS) against MDA-MB-231; assay type: cell-based; details: ER-negative; comparable drug concentrations; listed as free EDX
[2] = 25° C.; cited from earlier work
[3] = target: folate receptors (FR); details: read-out: affinity for FR (KD); cited from earlier work
[4] = skin deposition of Cou6 from two-dye dendron micelles (CLSM, spectrofluorometer); assay type: in vitro ADME, mouse
Procedure: To prepare two-dye dendron micelles, two milligrams of acetylated, RHO-labeled PDC (PDC-RHO-Ac) was combined with 10 mg of unlabeled surface modified PDC in 1.2 mL DMF, and 2% (wt %) of Cou6 was added to the mixture. The materials were fully dissolved and mixed by brief vortexing followed by gentle shaking for 2 h. The Cou6-encapsulated, RHO-labeled dendron micelles were prepared by the dialysis method, and the solid material was obtained by lyophilization as described above.
SKH-1 hairless mouse skin was exposed to the Cou6-loaded micelles with different surfaces for 24 h in the Franz cell setup. The skin area that was exposed to the treatment was carefully collected, rinsed twice with ddH2O for 10 min and embedded into cryomolds (Tissue-Tek®, Sakura Finetek USA, Inc., Torrance, Calif.). Skin was cryosectioned into 80 um-thick slices and placed on anti-frost glass slides. The slides were then fixed by 10% neutral buffered formalin for 10 min at RT and rinsed with ddH2O. The skin slides were mounted with antiphotobleaching mounting media with DAPI (Vector Laboratory Inc., Burlingame, Calif.) and covered with glass cover slips. […]
After the two-dye micelle experiment, the fluorescence intensity in the donor and receiver solutions, as well as skin extracts were detected using a SoftMax Pro spectrofluorometer (Spectra MAX, Molecular Devices Inc., Sunnyvale, Calif.). […]

Question: With `CC/C(=C(\c1ccc(O)cc1)c1ccc(OCCNC)cc1)c1ccccc1` [EDX, 4-hydroxy-N-desmethyl tamoxifen] as the molecule, how does the “anti-proliferative effect / cytotoxicity against MDA-MB-231 cells” value [1] read?
Answer: The value was “neither free EDX nor EDX-loaded micelles had significant cytotoxicity; also recorded: Neither free EDX nor EDX-loaded DMs exhibited significant anti-proliferative effect”.

Question: And the “partition coefficient (log P)” value [2]?
Answer: Its value is 6.01.

Question: With `Nc1nc2ncc(CNc3ccc(C(=O)N[C@@H](CCC(=O)O)C(=O)O)cc3)nc2c(=O)[nH]1` [FA, folic acid] as the molecule, how does the Kd [3] read?
Answer: The Kd was roughly 100 pM.

Question: With `CCN(CC)c1ccc2cc(-c3nc4ccccc4s3)c(=O)oc2c1` [free Cou6, Coumarin-6] as the molecule, how does the “Cou6 delivered into skin (skin extract)” value ([4]; Cou6-encapsulated, RHO-labeled micelles or free Cou6 in ethanol, mouse skin) read?
Answer: Its value is 26.48±2.51%.

Question: What about the “Cou6 distribution in skin layers (CLSM)” value ([4]; mouse skin cross-sections after Franz cell experiment) of the same molecule?
Answer: The value was “could not diffuse efficiently into the skin layers”.
